One substance from patent US20130244255A1, “ANTIBODIES DIRECTED TO GPNMB AND USES THEREOF” (priority 2006, published 2013) can be followed below.

For one assay, the system named is human interleukin-8. As to the kind of experiment: Plasma human IL-8 (ELISA) in SK-MEL-2 xenograft-bearing athymic mice. It is filed as in vivo. On the procedure:
Interleukin-8 (IL-8) was measured by an enzyme-linked immunosorbent assay using a commercial kit (Human CXCL8/IL-8 Quantikine ELISA Kit, 3rd Generation; R&D Systems, Minneapolis, Minn.), which recognizes human, but not mouse, IL-8. Assays were conducted according to the manufacturer's instructions in which the IL-8 was detected by binding to IL-8 specific mAb pre-coated onto 96-well microliter plate. Standards and samples were pipetted into the wells and human IL-8 was bound by the immobilized antibody. After washing away the unbound substances, horseradish peroxidase-conjugated IL-8 specific polyclonal antibody was added to the wells. Following a wash, substrate solution was added and color developed; the plate was read on an ELISA plate reader. Results were calculated from a standard curve, generated by a four-parameter logistic curve fit, and expressed in picograms per milliliter. The lower limit of quantitation of the assay was 3.5 pg/mL and for each timepoint, n=3 mice. No human IL-8 could be detected in the blood of normal (non-tumor-bearing) athymic mice.
Plasma concentrations of human IL-8 were measured by the species-specific ELISA assay described in Materials and Methods. At the beginning of treatment (day 16), the human IL-8 level in plasma was 29.8 pg/ml. […] At day 30 (14 days after treatment), plasma IL-8 level was not detected and remained undetectable for the duration of the experiment (FIG. 26).

The test system of a further assay is KG-1. As to the kind of experiment: Clonogenic assay (methylcellulose) with 1.15.1-AE. It counts as cell-based, human. As to the method: (§1) Lymphoma or leukemia cell lines were mixed with methylcellulose base media (R&D Systems, USA) and in various concentrations of unconjugated and Auristatin E-conjugated 1.15.1 antibody before plating onto 6-well tissue culture plates (Becton Dickinson, Franklin Lakes, N.J., USA). […] Plates were incubated at 37° C. and examined daily. On days 14-18, colonies on the plates were counted.

In another assay the test system is MOLT-4. As to the kind of experiment: Clonogenic assay (methylcellulose) with 1.15.1-AE. It is filed as cell-based, human. On the procedure:
as §1

The subject of the next assay is Karpas 299. Briefly: Clonogenic assay (methylcellulose) with 1.15.1-AE. It is filed as cell-based, human. On the procedure: as §1
The next assay concerns DEL. Briefly: Clonogenic assay (methylcellulose) with 1.15.1-AE. It counts as cell-based, human. On the procedure:
as §1

A further assay has as its system SU-DHL-1. As to the kind of experiment: Clonogenic assay (methylcellulose) with 1.15.1-AE. It counts as cell-based, human. On the procedure: as §1
For a further assay, the system named is CCRF-CEM. As to the kind of experiment: Clonogenic assay (methylcellulose) with 1.15.1-AE. It counts as cell-based, human. On the procedure: as §1
Another assay deals with PL-21. Briefly: Clonogenic assay (methylcellulose) with 1.15.1-AE. It is filed as cell-based, human. As to the method: as §1
The test system of another assay is Jurkat. As to the kind of experiment: Clonogenic assay (methylcellulose) with 1.15.1-AE. It is filed as cell-based, human. As to the method:
as §1

In a further assay the test system is SUP-M2. Briefly: Clonogenic assay (methylcellulose) with 1.15.1-AE. It is filed as cell-based, human. As to the method: as §1

In the case of “CR011-vcMMAE: CR011 conjugated to monomethyl auristatin E through a protease cleavable valine-citrulline linker; approx. 4 drugs per antibody”, the “plasma IL-8 level” value with human interleukin-8 (1 mg/kg single bolus, day 17.5 (1.5 days after treatment)) is 46.3 pg/mL; with human interleukin-8 (1 mg/kg single bolus, day 58 (42 days after treatment)), 414.63 pg/mL; in the assay with human interleukin-8 (10 mg/kg single bolus, day 17.5 (1.5 days after treatment)), 52.85 pg/mL; with human interleukin-8 (10 mg/kg single bolus, day 23 (7 days after treatment)) it was 24.39 pg/mL; in the assay on human interleukin-8 (10 mg/kg single bolus, day 30 (14 days after treatment) and after, lower limit of quantitation 3.5 pg/mL), “not detected”. The “Clonogenic Assay with 1.15.1-AE IC50 in ng/mL” value in the assay with KG-1 is “No growth”; in the assay with MOLT-4, “No effect (repeating)”; in the assay with Karpas 299, “Inconclusive”; with DEL it was “No effect”; in the assay on SU-DHL-1, “No effect”; with CCRF-CEM it was “No growth”. Also, the figures for the “Clonogenic Assay with 1.15.1-AE IC50 in ng/mL” value in the assay on PL-21, in the assay with Jurkat and in the assay on SUP-M2 were “No effect”, “No effect (repeating)” and “No growth”, respectively.
